Assay results from patent US20190297890A1, “FUNGICIDAL COMPOUNDS AND MIXTURES FOR FUNGAL CONTROL IN CEREALS” (Dow AgroSciences LLC, priority 2016, published 2019).

Tested on: Zymoseptoria tritici (SEPTTR)
Experiment: Field assessment of Zymoseptoria tritici (SEPTTR) in wheat, three field trials
Format: in vivo, Zymoseptoria tritici on winter wheat (TRZAW)
Details: average over 3 field trials
Source text: Treatments consisted of the compound of Formula I and chlorothalonil either using individually or as a two-way mixture with the compound of Formula I. The compound of Formula I was applied with Agnique BP-420 (50% w/w at 0.3% v/v) at 75 and 150 g ai/ha and chlorothalonil (Bravo 500) was applied at 375 and 500 g ai/ha. Commercial standards used in the studies were Fluxapyroxad (Imtrex), applied at 100 g ai/ha, and Metconazole+Fluxapyroxad (Librax), applied at 161 g ai/ha.
Field Assessment of Zymoseptoria tritici (SEPTTR) in Wheat:
Fungicidal treatments containing the compound of Formula I and chlorothalonil, either individually or as a two way mixture, were assessed against leaf spot of wheat (SEPTTR) in three separate field trials. In the first trial, fungicidal treatments were applied at BBBCH37 (curative, 3% infection at application on L3) growth stage of winter wheat (TRZAW, Dinosor variety) under naturally occurring infection with SEPTTR. The treatments were part of an experimental trial designed as a randomized complete block with four replications and a plot of approximately 1×6 m. Treatments were applied at water volume of 200 L/ha, using a backpack plot sprayer (BKPCKENG, FLATFANA nozzle) and pressurized at 200 kPa.
In the second trial, fungicidal treatments were applied twice at BBCH32 (curative, 25% infection at application on L5) and BBBCH37-39 (5% infection at application on L3) growth stages of winter wheat (TRZAW, Consort variety) under naturally occurring infection with SEPTTR. The treatments were part of an experimental trial designed as a randomized complete block with four replications and a plot of approximately 1×2 m. Treatments were applied at water volume of 200 L/ha, using a backpack plot sprayer (BKPCKAIR, Flat fan nozzle) and pressurized at 210 kPa.
In the final trial, fungicidal treatments were applied twice at BBCH32 (protective, 15% infection at application on L6) and BBBCH37-39 (12% infection at application on L5) growth stages of winter wheat (TRZAW, Smaragd variety) under naturally occurring infection with SEPTTR. […]
Disease severity (percentage of visual diseased foliage on whole plot or leaves) in […] was recorded following EPPO PP1/26 guideline prescriptions. Area under the disease progress curve (AUDPC) was calculated for each plot in both trials using the sets of recorded severity data. Relative AUDPC (% control based on AUDPC) was calculated as percent of the nontreated control. Final results for the control of leaf spot of wheat by the compound of Formula I, chlorothalonil, and mixtures are reported as an average of the relative AUDPC calculated over all three field trials. […]

SMILES	SEPTTR % Control based on AUDPC (375 g ai/ha) [%]	SEPTTR % Control based on AUDPC (500 g ai/ha) [%]	SEPTTR % Control based on AUDPC (75 g ai/ha, with Agnique BP-420 (50% w/w at 0.3% v/v)) [%]	SEPTTR % Control based on AUDPC (150 g ai/ha, with Agnique BP-420 (50% w/w at 0.3% v/v)) [%]
N#Cc1c(Cl)c(Cl)c(Cl)c(C#N)c1Cl [Chlorothalonil, tetrachloroisophthal-onitrile]	31.8	37.8	–	–
N#Cc1ccc(Oc2ccc(C(F)(F)C(O)(Cn3nc[nH]c3=S)c3ccc(F)cc3F)nc2)cc1 (stereo not shown) [Compound I, 4-((6-(2-(2,4-difluorophenyl)-1,1-difluoro-2-hydroxy-3-(5-thioxo-4,5-dihydro-1H-1,2,4-triazol-1-yl)propyl)pyridin-3-yl)oxy)benzonitrile]	–	–	61.2	72.2
